Results as given in patent publication US20250108123A1, “COMPOUND-LINKER […] COMPOUNDS USEFUL AS STING AGONISTS AND USES THEREOF” (priority 2021, published 2025).
Like-named read-outs stand apart in the source and are kept apart here.

Biological target: human STING WT (Homo sapiens (Human), UniProt Q86WV6)
Test: biochemical
Type: binding
Description: Cisbio Bioassays' human STING WI binding assay (#64BDSTGPEG & 64BDSTGPEH, Cisbio) is for quantitative measurement of human STING WI ligand using HTRF® technology.
Negative control: Dispense 5 μL of diluent into each negative control well. Standard: Dispense 5 μL of each Human STING WI Standard 2′3′-cGAMP (Std 0-Std 7) into each standard well. Compound: Dispense 5 μL of compound into each compound well.
Negative control: Add 5 μL of detection buffer to all wells. Other wells: Add 5 μL of human STING WT protein 6His-tagged protein to all wells.
Add 10 μL of premixed STING WT ligand d2 reagent and 6His Tb antibody working solution to all wells.
Seal the plate and incubate 3 hours at RT or at Over Night if necessary.
Remove the plate sealer and read on an HTRF® compatible reader (PerkinElmer, USA). Results were analyzed with a two-wavelength signal ratio: intensity (665 nm)/intensity (620 nm).
Cisbio Bioassays' human STING WT binding assay (#64BDSTGPEG & 64BDSTGPEH, Cisbio) is for quantitative measurement of human STING WT ligand using HTRF® technology.
Negative control: Dispense 5 μL of diluent into each negative control well. Standard: Dispense 5 μL of each Human STING WT Standard 2′3′-cGAMP (Std 0—Std 7) into each standard well. Compound: Dispense 5 μL of compound into each compound well.
[formula] • Fit the data in GraphPad to obtain IC50 values using equation (2)

[1] = human STING WT, HTRF binding assay, read-out: hSTING WT binding IC50
[2] = HTRF, human STING WT 6His-tagged protein, incubation 3 hours at RT, read-out: hSTING WT binding IC50/nM

Sequence of human STING WT (Q86WV6 whole entry): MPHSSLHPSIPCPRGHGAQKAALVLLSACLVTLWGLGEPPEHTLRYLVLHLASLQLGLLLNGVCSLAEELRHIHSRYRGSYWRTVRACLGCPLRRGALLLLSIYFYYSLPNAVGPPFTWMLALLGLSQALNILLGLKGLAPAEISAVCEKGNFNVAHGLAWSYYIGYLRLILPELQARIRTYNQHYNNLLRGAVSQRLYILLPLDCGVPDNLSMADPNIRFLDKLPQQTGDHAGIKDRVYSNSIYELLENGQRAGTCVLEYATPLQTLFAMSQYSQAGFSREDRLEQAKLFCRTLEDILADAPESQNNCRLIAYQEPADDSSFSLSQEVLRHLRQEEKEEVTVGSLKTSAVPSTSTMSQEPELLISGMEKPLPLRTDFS

Row | SMILES | IC50 [2] [nM] | also measured
1 | C=C(COc1c(OC)cc2c(c1Cl)CN(C(=O)CCC(=O)O)C2)COc1c(OC)cc2sc(C(=O)CCC(=O)O)cc2c1F [II-16, 4-(5-((2-(((2-(3-carboxypropanoyl)-4-chloro-6-methoxyisoindolin-5-yl)oxy)methyl)allyl)oxy)-4-fluoro-6-methoxybenzo[b]thiophen-2-yl)-4-oxobutanoic acid] |  | IC50 [1]: > 150 nM
2 | COc1cc2c(cc1OCCCOc1cc3cc(C(=O)CCC(=O)O)sc3cc1O)CN(C(=O)CCC(=O)O)C2 [II-7, sodium 4-(5-(3-((2-(3-carboxylatopropanoyl)-6-hydroxybenzo[b]thiophen-5-yl)oxy)propoxy)-6-methoxyisoindolin-2-yl)-4-oxobutanoate] |  | IC50: 0.36 nM
3 | COc1cc2c(c(Cl)c1OCCCOc1c(OC)cc3c(c1Cl)CN(C(=O)CCC(=O)O)C3)CN(C(=O)CCC(=O)O)C2 [Example I-12, 4,4′-((propane-1,3-diylbis(oxy))bis(4-chloro-6-methoxyisoindoline-5,2-diyl))bis(4-oxobutanoic acid)] | > 150 | 
4 | C=C(COc1c(OC)cc2c(c1Cl)CN(C(=O)CCC(=O)O)C2)COc1c(OC)cc2c(c1Cl)CN(C(=O)CCC(=O)O)C2 [Example I-11, 4,4′-(((2-methylenepropane-1,3-diyl)bis(oxy))bis(4-chloro-6-methoxyisoindoline-5,2-diyl))bis(4-oxobutanoic acid)] | > 150 | 
5 | COc1cc2c(cc1OCCCOc1nc3cc(C(=O)CCC(=O)O)sc3cc1OC)CN(C(=O)CCC(=O)O)C2 [II-8, sodium 4-(5-(3-((2-(3-carboxylatopropanoyl)-6-methoxyisoindolin-5-yl)oxy)propoxy)-6-methoxythieno[3,2-b]pyridin-2-yl)-4-oxobutanoate] |  | IC50 [1]: 1.04 nM
6 | COc1cc2c(cc1OCCCOc1c(OC)cc3c(c1Cl)CN(C(=O)CCC(=O)O)C3)CN(C(=O)CCC(=O)O)C2 [Example I-8, 4-(5-(3-((2-(3-carboxypropanoyl)-4-chloro-6-methoxyisoindolin-5-yl)oxy)propoxy)-6-methoxyisoindolin-2-yl)-4-oxobutanoic acid] | > 150 | 
7 | COc1cc2c(cc1OCCCOc1cc3cc(C(=O)CCC(=O)O)sc3cc1Br)CN(C(=O)CCC(=O)O)C2 [II-9, 4-(5-(3-((6-bromo-2-(3-carboxypropanoyl)benzo[b]thiophen-5-yl)oxy)propoxy)-6-methoxyisoindolin-2-yl)-4-oxobutanoic acid] |  | IC50: 0.65 nM
8 | COc1cc2c(cc1CN(C)Cc1cc3c(cc1OC)CN(C(=O)CCC(=O)O)C3)CN(C(=O)CCC(=O)O)C2 [Example I-7, 4,4′-(((methylazanediyl)bis(methylene))bis(6-methoxyisoindoline-5,2-diyl))bis(4-oxobutanoic acid)] | > 150 | 
